The source of these data is patent US5126436A (priority 1989, dated 1992).

Structures are written as SMILES. In brackets after ≈: the same amount, converted by molar mass.

In series [1] the test system is Pyricularia oryzae IFO 5994. The series is described as follows: microbe, parasite or virus in culture. Format: cell-based. Particulars: IFO5994, read-out: Inhibition Circle.
Series [2] is described as follows: Solubility. Format: physicochemical.
The test system of series [3] is KB. Kind of series: Cell-killing activity. Format: cell-based. Particulars: Homo sapiens; KB cells; read-out: ID50 (concentration at which 50% of cancer cells are killed).
Series [4] relates to HeLa. The series is described as follows: Cell-killing activity. Format: cell-based. Particulars: Homo sapiens; HeLa cells; read-out: ID50 (concentration at which 50% of cancer cells are killed).
Series [5] concerns Alternaria mali IFO 8984. Format: cell-based. Particulars: IFO8984, 20 μg/disc (diameter 8 mm), read-out: Inhibition Circle. The source says: (§1) The value in paretheses in the table denotes a partial inhibition.
Series [6] deals with Escherichia coli BE 1186. Format: cell-based. Particulars: BE1186, 20 μg/disc (diameter 8 mm), read-out: Inhibition Circle.
From the text: as §1

Series [7] concerns Colletotrichum lagenarium IFO 7513. The series is classed as cell-based. Particulars: Colletotrichum orbiculare, IFO7513; 20 μg/disc (diameter 8 mm); value in parentheses denotes a partial inhibition; read-out: Inhibition Circle.
From the text: as §1

Series [8] deals with Chlorella vulgaris. The series is classed as cell-based. Particulars: 20 μg/disc (diameter 8 mm), read-out: Inhibition Circle.
From the text: as §1

For series [9], the system named is Candida albicans IFO 1594. Format: cell-based. Particulars: IFO1594, 20 μg/disc (diameter 8 mm), read-out: Inhibition Circle.
From the text: as §1

The subject of series [10] is Escherichia coli AB 1157. Format: cell-based. Particulars: AB1157, 20 μg/disc (diameter 8 mm), read-out: Inhibition Circle.
From the text: as §1

The subject of series [11] is Pseudomonas aeruginosa IFO 13130. The series is classed as cell-based. Particulars: IFO13130, 20 μg/disc (diameter 8 mm), read-out: Inhibition Circle.
From the text: as §1

`CC=C(C)C(O)C(C)C=C(C)C=CCC(C)=CCc1nc(OC)c(OC)c(OC2OC(C)C(O)C(O)C2O)c1C` (stereo not drawn): the zone of inhibition at 20 µg/disc in series [1] was found to be 19.1 mm; in series [5], 0 mm; in series [6] it was 0 mm; in [7], 13.3 mm; in series [8], 0 mm; in series [9], 0 mm. Further, the zone of inhibition at 20 µg/disc in series [10] and in series [11] was 0 mm in each case. Moreover, the Solubility result in series [2] (chloroform, dimethyl sulfoxide, methanol, acetone) was “Soluble in chloroform, dimethyl sulfoxide, methanol and acetone”; in series [2] (n-hexane, water), “Insoluble in n-hexane and water”. Also, the IC50 in series [3] turned out to be 0.74 µg/mL (≈ 1.32 µM); in [4] it was 2.8 µg/mL (≈ 4.98 µM).
